Experimental data as given in US20240382489A1, “LIQUID PHARMACEUTICAL COMPOSITION” (Verona Pharma PLC, priority 2023, published 2024).

System: patients aged 40-80 years with moderate to severe COPD
Assay: Clinical study of nebulised ensifentrine vs placebo in COPD: lung function (FEV1)
Type: in vivo, human
Settings: 3 mg BID by nebuliser
Procedure: A clinical study was conducted to determine the efficacy of ensifentrine in treating COPD compared with placebo. Ensifentrine was administered by nebuliser at a dose of 3 mg twice daily (BID) for 24 weeks. The study was a multi-centre, randomized, double-blind, parallel-group, placebo-controlled trial with around 800 patients and 5:3 randomization.
The study population included patients aged 40-80 years with moderate to severe COPD (FEV130%-70% p.n., FEV1/forced vital capacity (FVC) ratio<0.7, with mMRC≥2). The randomization stratified (a) the use of stable background maintenance LAMA or LABA therapy use (approx. 50%. yes or no) and (b) cigarette smoking (current or former). Inhaled corticosteroid (ICS) maintenance therapy was permitted in up to 20% of patients under certain provisions.
The primary endpoint of the study was change from baseline in average FEV1 area under the curve (AUC)0-12 h post-dose at week 12. Secondary endpoints of the study included: peak FEV1 over 4 hours post-dose at Week 12; morning trough FEV1 at Week 12; and other endpoints including moderate/severe COPD exacerbations frequency over 24 Weeks.
Baseline FEV1 is the mean of the two measurements taken before study medication on the day of first dosing, i.e., ≤40 minutes and just prior to dosing, both pre-dose on day 1. […]

Question: How did the “improvement in lung function in all subgroups of COPD patients” value turn out when `COc1cc2c(cc1OC)-c1c/c(=N\c3c(C)cc(C)cc3C)n(CCNC(N)=O)c(=O)n1CC2` [Ensifentrine, N-(2-{(2E)-9,10-dimethoxy-4-oxo-2-[(2,4,6-trimethylphenyl)imino]-6,7-dihydro-2H-pyrimido[6,1-a]isoquinolin-3(4H)-yl}ethyl)urea] was run?
Answer: statistically significant improvement in lung function
